US11807625B2, “Capsid inhibitors for the prevention of HIV” (Gilead Sciences, Inc., priority 2019, dated 2023)
Like-named read-outs stand apart in the source and are kept apart here.

Test: PK of compound of Formula (Ia) after single subcutaneous dose of solution formulations in beagle dogs
Type: in vivo
Settings: male, beagle, dog, plasma, sc; for AUC(0-t): 6 mg/kg, mean ± SD, SC 6 mg/kg, solution V, 300 mg/mL
Method: Formulations containing the compound of Formula (Ia), or a pharmaceutically acceptable salt thereof, were prepared as solutions and optionally administered subcutaneously or intramuscularly to rats, rabbits, and/or dogs.
(§1) A solution of about 400 mg/mL of the compound of Formula (Ia) having 17.00 w/w % water, 36.40 w/w % PEG 300, 35.20 w/w % of a sodium salt of a compound of Formula (Ia), 5.00 w/w % ethanol, and 6.40 w/w % poloxamer 188 was prepared. The solution was administered subcutaneously to male beagle dogs at a dose level of about 12 mg/kg and male Wistar Han rats at a dose level of about 50 mg/kg. The pharmacokinetic profiles were determined, and the results for dogs are summarized in Table and Table, while the results for rats are summarized in Table and Table below.
as §1, with “500” for “400”, “14.06” for “17.00”, “30.12” for “36.40”
A solution of about 300 mg/mL of the compound of Formula (Ia) having 23.33 w/w % water, 48.99 w/w % PEG 300, 26.47 w/w % of a sodium salt of a compound of Formula (Ia), and 1.21 w/w % poloxamer 188 was prepared. The solution was administered subcutaneously to male beagle dogs at a dose level of about 6 mg/kg and male Wistar Han rats at a dose level of about 50 mg/kg. The pharmacokinetic profiles were determined, and the results for dogs are summarized in Table and Table, while the results for rats are summarized in Table and Table below.
as §1, with “18.80” for “17.00”, “40.25” for “36.40”, “34.38” for “35.20”, “1.57” for “6.40”
as §1, with “500” for “400”, “16.29” for “17.00”, “34.88” for “36.40”, “41.92” for “35.20”, “1.91” for “6.40”
as §1, with “20.90” for “17.00”, “44.72” for “36.40”, “and 34.38” for “35.20”, “(Ia)” for “(Ia), 5.00 w/w % ethanol, and 6.40 w/w % poloxamer 188”
A solution of about 400 mg/mL of the compound of Formula (Ia) having 19.90 w/w % water, 42.59 w/w % PEG 300, 34.38 w/w % of a sodium salt of a compound of Formula (Ia), and 3.13 w/w % poloxamer 188 was prepared. The solution was administered subcutaneously to male beagle dogs at a dose level of about 12 mg/kg and male Wistar Han rats at a dose level of about 50 mg/kg. […]

[1] = 12 mg/kg, mean, n = 3 dogs, SC 12 mg/kg, solution T, 400 mg/mL
[2] = 12 mg/kg, mean, n = 3 dogs, SC 12 mg/kg, solution U, 500 mg/mL
[3] = 12 mg/kg, individual dogs, SC 12 mg/kg, solution T, 400 mg/mL
[4] = 12 mg/kg, individual dogs, SC 12 mg/kg, solution U, 500 mg/mL
[5] = 12 mg/kg, beagle dogs, SC 12 mg/kg, 400 mg/mL solution AA (6.25% poloxamer 188), Mean n = 3
[6] = 12 mg/kg, beagle dogs, SC 12 mg/kg, 400 mg/mL solution AA (6.25% poloxamer 188), animals #1-#3
[7] = 12 mg/kg, beagle dogs, SC 12 mg/kg, 400 mg/mL solution W (5.00% ethanol, 1.57% poloxamer 188), Mean n = 3
[8] = 12 mg/kg, beagle dogs, SC 12 mg/kg, 400 mg/mL solution W (5.00% ethanol, 1.57% poloxamer 188), animals #1-#3

CC(C)(C#Cc1ccc(-c2ccc(Cl)c3c(NS(C)(=O)=O)nn(CC(F)(F)F)c23)c([C@H](Cc2cc(F)cc(F)c2)NC(=O)Cn2nc(C(F)(F)F)c3c2C(F)(F)[C@@H]2C[C@H]32)n1)S(C)(=O)=O [compound of Formula (Ia)]
AUC(0-t) (n = 3 dogs, read-out: AUC0-2016 h): 107 ± 12 µM·h | AUC(0-t) (n = 3 dogs, read-out: AUC0-2253 h): 109 ± 12 µM·h | AUC(0-t) (n = 3 dogs, read-out: AUC0-2688 h): 110 ± 12 µM·h | AUC(0-t) (n = 3 dogs, read-out: AUC0-3024 h): 111 ± 13 µM·h | AUC(0-t) (n = 3 dogs, read-out: AUC0-4032 h): 112 ± 13 µM·h | AUC(0-t) (n = 3 dogs, read-out: AUC0-4368 h): 112 ± 13 µM·h | concentration at 1 h [1]: 6.07 nM | concentration at 1 h [2]: 5.59 nM | concentration at 3 h [1]: 18.1 nM | concentration at 3 h [2]: 22 nM | concentration at 8 h [3]: 83.9 nM | concentration at 8 h [1]: 72.9 nM | concentration at 8 h [2]: 61.2 nM | concentration at 24 h [3]: 233 nM | concentration at 24 h [1]: 224 nM | concentration at 24 h [2]: 134 nM | concentration at 48 h [4]: 72.8 nM | concentration at 48 h [1]: 241 nM | concentration at 48 h [2]: 87.2 nM | concentration at 72 h [4]: 49.4 nM | concentration at 72 h [1]: 223 nM | concentration at 72 h [2]: 58.6 nM | concentration at 96 h [4]: 49 nM | concentration at 96 h [1]: 232 nM | concentration at 96 h [2]: 52.4 nM | concentration at 168 h [1]: 221 nM | concentration at 168 h [2]: 97.5 nM | concentration at 336 h [3]: 179 nM | concentration at 336 h [4]: 114 nM | concentration at 336 h [1]: 261 nM | concentration at 336 h [2]: 152 nM | concentration at 504 h [3]: 286 nM | concentration at 504 h [4]: 151 nM | concentration at 504 h [1]: 238 nM | concentration at 504 h [2]: 149 nM | concentration at 672 h [3]: 150 nM | concentration at 672 h [1]: 116 nM | concentration at 672 h [2]: 81.9 nM | concentration at 840 h [1]: 90.8 nM | concentration at 840 h [2]: 72.6 nM | concentration at 1008 h [3]: 75.5 nM | concentration at 1008 h [1]: 73.6 nM | concentration at 1008 h [2]: 58.3 nM | concentration at 1344 h [3]: 42.5 nM | concentration at 1344 h [4]: 43.3 nM | concentration at 1344 h [1]: 36.2 nM | concentration at 1344 h [2]: 34.8 nM | concentration at 1680 h [3]: 19.9 nM | concentration at 1680 h [1]: 23.9 nM | concentration at 1680 h [2]: 21.3 nM | concentration at 2016 h [1]: 11.8 nM | concentration at 2016 h [2]: 10.3 nM | concentration at 2352 h [3]: 4.8 nM | concentration at 2352 h [1]: 6 nM | concentration at 2352 h [2]: 7.5 nM | concentration at 1 h [5]: 4 nM | concentration at 3 h [5]: 13.8 nM | concentration at 8 h [5]: 42.3 nM | concentration at 24 h [5]: 134 nM | concentration at 24 h [6]: 118 nM | concentration at 48 h [5]: 148 nM | concentration at 48 h [6]: 102 nM | concentration at 72 h [5]: 135 nM | concentration at 96 h [5]: 180 nM | concentration at 96 h [6]: 140 nM | concentration at 168 h [5]: 101 nM | concentration at 168 h [6]: 106 nM | concentration at 336 h [5]: 185 nM | concentration at 336 h [6]: 204 nM | concentration at 504 h [5]: 182 nM | concentration at 672 h [5]: 183 nM | concentration at 672 h [6]: 157 nM | concentration at 840 h [5]: 109 nM | concentration at 840 h [6]: 103 nM | concentration at 1008 h [5]: 85.4 nM | concentration at 1008 h [6]: 77.6 nM | concentration at 1334 h [5]: 47.6 nM | concentration at 1334 h [6]: 35.8 nM | concentration at 1680 h [5]: 28 nM | concentration at 1680 h [6]: 24 nM | concentration at 2016 h [5]: 15.4 nM | concentration at 2016 h [6]: 10.2 nM | concentration at 2352 h [5]: 10.5 nM | concentration at 2688 h (12 mg/kg, beagle dogs, SC 12 mg/kg, 400 mg/mL solution AA (6.25% poloxamer 188), 2688 h, Mean n = 3): 5.47 nM | concentration at 3024 h (12 mg/kg, beagle dogs, SC 12 mg/kg, 400 mg/mL solution AA (6.25% poloxamer 188), 3024 h, Mean n = 3): 3.54 nM | concentration at 3360 h (12 mg/kg, beagle dogs, SC 12 mg/kg, 400 mg/mL solution AA (6.25% poloxamer 188), 3360 h, Mean n = 3): 1.97 nM | concentration at 3696 h (12 mg/kg, beagle dogs, SC 12 mg/kg, 400 mg/mL solution AA (6.25% poloxamer 188), Mean): 1.56 nM | concentration at 3696 h [6]: 1.63 nM | concentration at 3 h [7]: 3.84 nM | concentration at 3 h [8]: 3.45 nM | concentration at 8 h [7]: 18 nM | concentration at 24 h [7]: 37.8 nM | concentration at 24 h [8]: 35.4 nM | concentration at 48 h [7]: 48.2 nM | concentration at 72 h [7]: 48.6 nM
